Reference: ChEMBL document CHEMBL1770059, “Identification of chemicals to inhibit the kinase activity of leucine-rich repeat kinase 2 (LRRK2), a Parkinson's disease-associated protein” (Bioorg Med Chem Lett, 2011)

Molecular target: T1, Mitogen-activated protein kinase kinase kinase 7 (Homo sapiens) (UniProt O43318)
T1 sequence (whole entry): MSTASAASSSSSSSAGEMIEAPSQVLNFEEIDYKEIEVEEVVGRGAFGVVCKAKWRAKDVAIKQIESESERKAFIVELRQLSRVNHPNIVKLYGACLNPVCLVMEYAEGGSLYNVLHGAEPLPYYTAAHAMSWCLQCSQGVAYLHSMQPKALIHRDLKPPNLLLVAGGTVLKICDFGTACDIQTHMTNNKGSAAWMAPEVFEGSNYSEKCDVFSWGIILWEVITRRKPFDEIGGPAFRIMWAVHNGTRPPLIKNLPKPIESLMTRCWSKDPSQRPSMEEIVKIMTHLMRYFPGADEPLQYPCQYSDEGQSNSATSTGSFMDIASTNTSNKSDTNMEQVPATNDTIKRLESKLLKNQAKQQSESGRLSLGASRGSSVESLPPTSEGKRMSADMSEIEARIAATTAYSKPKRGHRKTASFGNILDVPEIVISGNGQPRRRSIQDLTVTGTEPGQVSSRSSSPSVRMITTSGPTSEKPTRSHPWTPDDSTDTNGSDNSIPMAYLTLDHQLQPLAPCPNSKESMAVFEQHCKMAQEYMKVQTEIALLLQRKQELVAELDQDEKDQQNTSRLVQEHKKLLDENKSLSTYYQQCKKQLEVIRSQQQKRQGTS
Assay: Inhibition of TAK1 assessed as residual activity of enzyme at 10 uM

Activity: 68%
Compound: Cc1cc(N/N=C/c2ccncc2)nc2ccccc12
